For assay [1], the system named is splenic cells of Lewis rats (T lymphocyte blastogenesis). Put plainly: Test 2: T-cell growth inhibitor activity (T lymphocyte blastogenesis, Concanavalin A, AlamarBlue). It is filed as cell-based. The conditions noted are these: Lewis rat splenic cells, Concanavalin A 1 μg/mL, 72 hours, read-out: Test 2: T-cell growth inhibitory activity IC50. The protocol:
Test 2: Determination of T-Cell Growth Inhibitor Activity
The T lymphocyte blastogenesis test was performed in microtiter plates with each well containing 1.5×10^5 splenic cells of Lewis rats in 0.1 mL RPMI-1640 medium supplemented with 10% fetal bovine serum (FBS), […] 2-mercaptoethanol, penicilln (100 units/mL) and streptomycin (100 μg/mL), to which Concanavalin A (1 μg/mL) was added. The cells were incubated at 37° C. in a humidified atmosphere of 5% CO2 for 72 hours. After the culture period, suppressive activities of the test compounds in T lymphocyte blastogenesis were quantified by AlamarBlue (trademark) Assay. The test samples were dissolved in DMSO and further diluted with RPMI-1640 medium and added to the culture. The activities of the test compounds were expressed as IC50.
For orientation: The colour change of resazurin is a common sign of viable cells or microbes.

The subject of assay [2] is T1, human histone deacetylase partially purified from human T cell leukemia Jurkat cells.
T1 construct: The human histone deacetylase was partially purified from human T cell leukemia Jurkat cells
Kind of assay: Test 1: Determination of histone deacetylase inhibitor activity ([3H]acetyl histone deacetylation). The assay is classed as biochemical. The conditions noted are these: partially purified human HDAC from Jurkat cells, [3H]acetyl histone substrate, 25° C., 30 minutes; read-out: Test 1: HDAC inhibitory activity IC50. The protocol:
Test 1: Determination of Histone Deacetylase Inhibitor Activity
The partial purification of human histone deacetylase, the preparation of [^3H] acetyl histones, and the assay for histone deacetylase activity were performed basically according to the method as proposed by Yoshida et al. as follows.
Partial Purification of Human Histone Deacetylase
The human histone deacetylase was partially purified from human T cell leukemia Jurkat cells. Jurkat cells (5×10^8 cells) were suspended in 40 mL of the HDA buffer consisting of 15 mM potassium phosphate, pH 7.5, 5% glycerol and 0.2 mM EDTA. After homogenization, nuclei were collected by centrifugation (35,000×g, 10 min) and homogenized in 20 mL of the same buffer supplemented with 1 M (NH4)2SO4. The viscous homogenate was sonicated and clarified by centrifugation (35,000×g, 10 min), and the deacetylase was precipitated by raising the concentration of (NH4)2SO4 to 3.5 M. The precipitated protein was dissolved in 10 mL of the HDA buffer and dialyzed against 4 liters of the same buffer. The dialyzate was then loaded onto a DEAE-cellulose (Whatman DE52) column (25×85 mm) equilibrated with the same buffer and eluted with 300 mL of a linear gradient (0-0.6 M) of NaCl. A single peak of histone deacetylase activity appeared between 0.3 and 0.4 M NaCl.
Preparation of [^3H] Acetyl Histone
To obtain [^3H] acetyl-labeled histone as the substrate for the histone deacetylase assay, 1×10^8 cells of Jurkat in 20 mL of RPMI-1640 medium (supplemented with 10% FBS, penicillin (50 units/mL) and streptomycin (50 μg/mL)) were incubated with 300 MBq [^3H] sodium acetate in the presence of 5 mM sodium butyrate for 30 minutes in 5% CO2-95% air atmosphere at 37° C. in a […] flask, harvested into a centrifuge tube (50 mL), collected by centrifugation at 1000 rpm for 10 minutes, and washed once with phosphate-buffered saline. The washed cells were suspended in 15 mL of ice-cold lysis buffer (10 mM Tris-HCl, 50 mM sodium bisulfite, 1% Triton X-100, 10 mM MgCl2, 8.6% sucrose, pH 6.5). After Dounce homogenization (30 stroke), the nuclei were collected by centrifugation at 1000 rpm for 10 minutes, washed 3 times with 15 mL of the lysis buffer, and once with 15 mL of ice-cooled washing buffer (10 mM Tris-HCl, 13 mM EDTA, pH 7.4) successively. The pellet was suspended in 6 mL of ice-cooled water using a mixer, and 68 μl of H2SO4 was added to the suspension to give a concentration of 0.4 N. After incubation at 4° C. for 1 hour, the suspension was centrifuged for 5 minutes at 15,000 rpm, and the supernatant was taken and mixed with 60 mL of acetone. After overnight incubation at −20° C., the coagulated material was collected by microcentrifugation, air-dried, and stored at −80° C.
Assay for Histone Deacetylase Activity
For the standard assay, 10 μl of [^3H] acetyl-labeled histones were added to 90 μl of the enzyme fraction, and the mixture was incubated at 25° C. for 30 minutes. The reaction was stopped by addition of 10 μl of HCl. The released [^3H] acetic acid was extracted with 1 mL of ethyl acetate, and 0.9 mL of the solvent layer was taken into 10 mL of toluene scintillation solution for determination of radioactivity.

Where a name gives a salt, the structure may show the parent alone.

The IC50 is the concentration that gives 50% inhibition.

With `O=C(/C=C/c1cnc(N[C@@H]2CCN(CCc3cccs3)C2)cn1)NO` [Example 4, (2E)-N-hydroxy-3-[5-({(3R)-1-[2-(2-thienyl)ethyl]-3-pyrrolidinyl}amino)-2-pyrazinyl]acrylamide dihydrochloride], the results for the IC50 in assay [1] and in assay [2] were 1.2 nM and 3.6 nM, respectively.
For `O=C(/C=C/c1cnc(N[C@@H]2CCN(CC3CCCC3)C2)cn1)NO` [Example 12, (2E)-3-(5-{[(3R)-1-(cyclopentylmethyl)-3-pyrrolidinyl]amino}-2-pyrazinyl)-N-hydroxyacrylamide dihydrochloride], in that order: 2 nM and 0.59 nM.
Take `O=C(/C=C/c1cnc(N[C@@H]2CCN(CCCC3CCCCC3)C2)cn1)NO` [Example 29, (2E)-3-[5-({(3R)-1-(3-cyclohexylpropyl)-3-pyrrolidinyl}amino)-2-pyrazinyl]-N-hydroxyacrylamide dihydrochloride]: the IC50 in assay [1] is 3.3 nM; in assay [2], 6.5 nM.
In the case of `O=C(/C=C/c1cnc(N[C@@H]2CCN(CCc3ccc(F)cc3F)C2)cn1)NO` [Example 2, (2E)-3-[5-({(3R)-1-[2-(2,4-difluorophenyl)ethyl]-3-pyrrolidinyl}amino)-2-pyrazinyl]-N-hydroxyacrylamide dihydrochloride], the figures for the half-inhibitory concentration (IC50) in assay [1] and in assay [2] were 2.3 nM and 1.5 nM, respectively.
`O=C(/C=C/c1cnc(N[C@@H]2CCCN(CCc3ccccc3Cl)C2)cn1)NO` [Example 26, (2E)-3-[5-({(3R)-1-[2-(2-chlorophenyl)ethyl]-3-piperidinyl}amino)-2-pyrazinyl]-N-hydroxyacrylamide dihydrochloride]: the IC50 stood at 0.44 nM in assay [1] and 1.4 nM in assay [2].
For the compound `O=C(/C=C/c1cnc(N[C@@H]2CCN(Cc3cccc4ccccc34)C2)cn1)NO` [Example 16, (2E)-N-hydroxy-3-[5-[{(3R)-1-(1-naphthylmethyl)-3-pyrrolidinyl}amino]-2-pyrazinyl]acrylamide dihydrochloride], the half-inhibitory concentration (IC50) was 4.1 nM in assay [1] and 6.6 nM in assay [2].
In the case of `O=C(/C=C/c1cnc(N[C@@H]2CCCN(CCc3ccccc3F)C2)cn1)NO` [Example 7, (2E)-3-[5-({(3R)-1-[2-(2-fluorophenyl)ethyl]-3-piperidinyl}amino)-2-pyrazinyl]-N-hydroxyacrylamide dihydrochloride], the IC50 in assay [1] is 0.79 nM; in assay [2], 1.5 nM.
On to `O=C(/C=C/c1cnc(N[C@@H]2CCN(CCC3CCCCC3)C2)cn1)NO` [Example 21, (2E)-3-(5-{[(3R)-1-(2-cyclohexylethyl)-3-pyrrolidinyl]amino}-2-pyrazinyl)-N-hydroxyacrylamide dihydrochloride], for which the IC50 in assay [1] turned out to be 2.4 nM; in assay [2] it was 0.98 nM.
The matching figures for `O=C(/C=C/c1cnc(N[C@@H]2CCN(CC3(CO)CCCCC3)C2)cn1)NO` [Example 13, (2E)-N-hydroxy-3-(5-{[(3R)-1-{[1-(hydroxymethyl)cyclohexyl]methyl}-3-pyrrolidinyl]amino}-2-pyrazinyl)acrylamide dihydrochloride]: 4.7 nM and 1.9 nM.
`O=C(/C=C/c1cnc(N[C@@H]2CCCN(CCc3ccc(F)cc3F)C2)cn1)NO` [Example 8, (2E)-3-[5-({(3R)-1-[2-(2,4-difluorophenyl)ethyl]-3-piperidinyl}amino)-2-pyrazinyl]-N-hydroxyacrylamide dihydrochloride]: the half-maximal inhibitory concentration (IC50) stood at 1.1 nM in assay [1] and 1.7 nM in assay [2].
As for `COc1cc(CN2CC[C@@H](Nc3cnc(/C=C/C(=O)NO)cn3)C2)ccc1F` [Example 11, (2E)-3-(5-{[(3R)-1-(4-fluoro-3-methoxybenzyl)-3-pyrrolidinyl]amino}-2-pyrazinyl)-N-hydroxyacrylamide dihydrochloride], the values for the IC50 in assay [1] and in assay [2] were 4.5 nM and 0.95 nM, respectively.
As for `CC(C)(CN1CC[C@@H](Nc2cnc(/C=C/C(=O)NO)cn2)C1)c1ccccc1` [Example 28, (2E)-N-hydroxy-3-[5-[{(3R)-1-(2-methyl-2-phenylpropyl)-3-pyrrolidinyl}amino]-2-pyrazinyl]acrylamide dihydrochloride], the IC50 in assay [1] stood at 11 nM; in assay [2], 4.2 nM.
For `O=C(/C=C/c1cnc(N[C@@H]2CCCN(CCC3CCCC3)C2)cn1)NO` [Example 24, (2E)-3-(5-{[(3R)-1-(2-cyclopentylethyl)-3-piperidinyl]amino}-2-pyrazinyl)-N-hydroxyacrylamide dihydrochloride], in that order: 2.4 nM and 0.81 nM.
As to `CN(C)c1ccccc1CN1CC[C@@H](Nc2cnc(/C=C/C(=O)NO)cn2)C1` [Example 10, (2E)-3-[5-({(3R)-1-[2-(dimethylamino)benzyl]-3-pyrrolidinyl}amino)-2-pyrazinyl]-N-hydroxyacrylamide trihydrochloride], the IC50 in assay [1] stood at 3.2 nM; in assay [2], 3 nM.
Consider `O=C(/C=C/c1cnc(N[C@@H]2CCCN(CCc3ccc(Cl)cc3)C2)cn1)NO` [Example 27, (2E)-3-[5-({(3R)-1-[2-(4-chlorophenyl)ethyl]-3-piperidinyl}amino)-2-pyrazinyl]-N-hydroxyacrylamide dihydrochloride], for which the values for the IC50 in assay [1] and in assay [2] were 0.38 nM and 0.92 nM, respectively.
In the case of `O=C(/C=C/c1cnc(N[C@@H]2CCCN(CCCc3ccccc3)C2)cn1)NO` [Example 17, (2E)-N-hydroxy-3-[5-[{(3R)-1-(3-phenylpropyl)-3-piperidinyl}amino]-2-pyrazinyl]acrylamide dihydrochloride], the IC50 in assay [1] was 5 nM; in assay [2], 3.3 nM.
In the case of `O=C(/C=C/c1cnc(N[C@@H]2CCN(CCc3ccccc3Cl)C2)cn1)NO` [Example 22, (2E)-3-[5-({(3R)-1-[2-(2-chlorophenyl)ethyl]-3-pyrrolidinyl}amino)-2-pyrazinyl]-N-hydroxyacrylamide dihydrochloride], the values for the concentration for half-maximal inhibition (IC50) in assay [1] and in assay [2] were 1.3 nM and 0.87 nM, respectively.
`O=C(/C=C/c1cnc(N[C@@H]2CCCN(CCc3ccc(F)c(F)c3)C2)cn1)NO` [Example 9, (2E)-3-[5-({(3R)-1-[2-(3,4-difluorophenyl)ethyl]-3-piperidinyl}amino)-2-pyrazinyl]-N-hydroxyacrylamide dihydrochloride]: the half-inhibitory concentration (IC50) amounted to 1.8 nM in assay [1] and 1 nM in assay [2].
Take `COc1ccc(F)cc1CN1CC[C@@H](Nc2cnc(/C=C/C(=O)NO)cn2)C1` [Example 15, (2E)-3-(5-{[(3R)-1-(5-fluoro-2-methoxybenzyl)-3-pyrrolidinyl]amino}-2-pyrazinyl)-N-hydroxyacrylamide dihydrochloride]: the values for the IC50 in assay [1] and in assay [2] were 6.4 nM and 4.4 nM, respectively.
Consider `O=C(/C=C/c1cnc(N[C@@H]2CCN(CC34CCC(CC3)O4)C2)cn1)NO` [Example 14, (2E)-N-hydroxy-3-(5-{[(3R)-1-(7-oxabicyclo[2.2.1]hept-1-ylmethyl)-3-pyrrolidinyl]amino}-2-pyrazinyl)acrylamide dihydrochloride], for which the IC50 in assay [1] stood at 1.2 nM; in assay [2], 3.8 nM.
For `O=C(/C=C/c1cnc(N[C@@H]2CCN(CCc3c(F)cccc3F)C2)cn1)NO` [Example 3, (2E)-3-[5-({(3R)-1-[2-(2,6-difluorophenyl)ethyl]-3-pyrrolidinyl}amino)-2-pyrazinyl]-N-hydroxyacrylamide dihydrochloride], the half-inhibitory concentration (IC50) in assay [1] worked out at 1.2 nM; in assay [2] it was 2.7 nM.

The record behind these values is patent US7750155B2, “Pyrazinyl hydroxyacrylamide compounds having an inhibitory effect on the activity of histone deacetylase” (Astellas Pharma Inc., priority 2006, dated 2010).
